Here are results for eleven molecules from ChEMBL document CHEMBL1201862, “PubChem BioAssay data set” (2004).

Holding throughout (assay): NCI tumour cell line growth inhibition, 48 h
For assay [1], the system named is T47D.
Assay [2] has as its system ACHN.
Assay [3] relates to A498.
In assay [4] the test system is CAKI-1.
The test system of assay [5] is SK-OV-3.
Assay [6] deals with SN12C.
Assay [7] concerns SK-MEL-5.
Assay [8] deals with HCC 2998.
Assay [9] concerns OVCAR-4.
In assay [10] the test system is NCI-H522.
In assay [11] the test system is SF-268.
The test system of assay [12] is HT-29.
Assay [13] concerns LOX IMVI.
For assay [14], the system named is 786-0.
Assay [15] concerns RXF 393.
Assay [16] has as its system SNB-75.
The test system of assay [17] is OVCAR-8.
Assay [18] concerns NCI/ADR-RES.
Assay [19] has as its system Malme-3M.
In assay [20] the test system is DU-145.

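Cultured in 96-well plates, cells were exposed to test compound for 48 hours across five concentrations. The concentration for 50% growth inhibition is given as GI50.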 Active and inactive are the calls of the source. Cut-off read from the data, not from the text of the source: active = GI50 up to about 1.1 µM and inactive = higher. Some results are limits rather than exact numbers.

Take `Cn1c(=O)c2c(no[n+]2[O-])c2ccccc21`: the GI50 in assay [1] is 21.6 µM (inactive); in [2], 26.5 µM (inactive); in [3] it was 31.9 µM (inactive); in [4], 18.2 µM (inactive); in [5], 33 µM (inactive); in assay [6] it was 22.8 µM (inactive). The GI50 in assay [7] was 12.4 µM (inactive); in [8], 12.9 µM (inactive); in [9], 18.4 µM (inactive); in [10], 13.6 µM (inactive); in assay [11], 20.5 µM (inactive); in assay [12], 17.5 µM (inactive). Further, the GI50 in assay [13] is 10.9 µM (inactive); in assay [14] it was 15.5 µM (inactive); in [15], 19.9 µM (inactive); in assay [16], 18.6 µM (inactive); in assay [17], 12.7 µM (inactive); in [18] it was 20.8 µM (inactive). For the same molecule, in assay [19], the GI50 was 14.2 µM (inactive).

Consider `Cc1cccc(/C(Br)=C2/OC(=O)c3ccccc32)c1`, for which the GI50 in assay [2], in [3], in [4], in assay [5], in assay [6] and in assay [20] was > 100 µM (inactive) in each case. In addition, the GI50 in assay [7], in [8], in [9], in [10], in assay [11] and in assay [12] was > 100 µM (inactive) each time. Moreover, the GI50 in assay [14], in assay [15], in assay [16], in assay [17] and in assay [19] was > 100 µM (inactive) throughout.

As for `CSc1nc2c(c(=O)[nH]1)N=C(c1ccc([N+](=O)[O-])cc1)CC(c1ccccc1)N2` (centres undefined), the GI50 in assay [2] is 31.9 µM (inactive); in assay [3], > 100 µM (inactive); in [4], 89.1 µM (inactive); in [6] it was 54.8 µM (inactive); in [20], 86.1 µM (inactive); in [7], 20.9 µM (inactive). The GI50 is 22.5 µM (inactive) in assay [8]; 28.7 µM (inactive) in assay [9]; 23.9 µM (inactive) in assay [10]; 20.3 µM (inactive) in assay [12]; 28.1 µM (inactive) in assay [13]; 34.7 µM (inactive) in [14]. In addition, the GI50 is 23.2 µM (inactive) in assay [15]; 22.7 µM (inactive) in assay [16]; 34.5 µM (inactive) in assay [17]; 30 µM (inactive) in [18]; 55.5 µM (inactive) in assay [19].

With `COc1ccc(N2/C(=N/c3ccccc3)SC(=N/S(=O)(=O)c3ccccc3)/C2=N\S(=O)(=O)c2ccccc2)cc1`, the GI50 is 0.298 µM (active) in assay [1]; 23.3 µM (inactive) in assay [2]; 20.1 µM (inactive) in [3]; 15.8 µM (inactive) in [6]; 16.6 µM (inactive) in [7]; 17.3 µM (inactive) in assay [8]. Moreover, the GI50 in [12] is 19.6 µM (inactive); in assay [14], 24.9 µM (inactive); in assay [15] it was 12.8 µM (inactive); in [16] it was 19.4 µM (inactive); in assay [17] it was 18.2 µM (inactive); in assay [19], 21 µM (inactive).

As for `O=C(COc1ccc(OCC(=O)N2C(=O)CC(=O)N(c3ccc(Cl)cc3)C2=S)cc1)N1C(=O)CC(=O)N(c2ccc(Cl)cc2)C1=S`, the GI50 in [2] was 27.4 µM (inactive); in [3] it was 47.3 µM (inactive); in [5] it was 35.4 µM (inactive); in assay [6], 42 µM (inactive); in assay [20], 31.6 µM (inactive); in [7] it was 29.7 µM (inactive). For the same molecule, the GI50 is 28.5 µM (inactive) in assay [8]; 33.6 µM (inactive) in [9]; 17 µM (inactive) in assay [10]; 40.4 µM (inactive) in assay [11]; 24.6 µM (inactive) in assay [12]; 19.6 µM (inactive) in [14]. Further, the GI50 in [15] was 31.6 µM (inactive); in assay [16] it was 72.9 µM (inactive); in [18], 22.9 µM (inactive); in [19], 3.26 µM (inactive).

Turning to `c1ccc(Cc2nc(Cc3n[nH]c(Cc4ccccc4)n3)n[nH]2)cc1`, the GI50 in [2], in [5], in assay [6], in [20], in assay [7] and in assay [8] was > 100 µM (inactive) each time. The GI50 in [9], in assay [10], in assay [11], in [12], in assay [13] and in assay [14] was > 100 µM (inactive) in each case. Moreover, the GI50 in assay [15], in assay [16], in assay [17] and in [18] was > 100 µM (inactive) throughout.

With `COC(=O)Cc1c(C(=O)CC(C)(C)n2cnc(CCN3C(=O)CCC3=O)c2)[nH]c2ccccc12`, the GI50 in assay [2], in [4], in assay [5], in assay [6], in assay [20] and in [7] was > 100 µM (inactive) throughout. Besides, the GI50 in [9] is > 100 µM (inactive); in assay [10] it was 32.4 µM (inactive); in [11], > 100 µM (inactive); in assay [12], > 100 µM (inactive); in assay [13], > 100 µM (inactive); in assay [14], > 100 µM (inactive). Besides, the GI50 in assay [15] is 15.4 µM (inactive); in assay [16], 27 µM (inactive); in assay [17], > 100 µM (inactive); in assay [18], > 100 µM (inactive); in assay [19], > 100 µM (inactive).

As to `O=C1OC(c2ccco2)=N/C1=C\c1cccc([N+](=O)[O-])c1`, the GI50 in assay [1], in assay [2], in assay [3], in [4], in assay [5] and in assay [6] was > 100 µM (inactive) each time. The GI50 in assay [20], in [7], in assay [8], in [9], in assay [10] and in assay [11] was > 100 µM (inactive) throughout. In addition, the GI50 in [12], in assay [13], in [14], in [16], in assay [17] and in assay [19] was > 100 µM (inactive) each time.

`COC(=O)C(Cc1nc2ccccc2nc1O)C(=O)C(=O)Nc1cc(C(F)(F)F)ccc1Cl` (centres undefined): the GI50 in assay [1] is 15.1 µM (inactive); in [2], 12.1 µM (inactive); in assay [3], 24 µM (inactive); in assay [4], 15.4 µM (inactive); in [5], 35.3 µM (inactive); in [6], 20.5 µM (inactive). For the same molecule, the GI50 is 20.4 µM (inactive) in [7]; 13.6 µM (inactive) in assay [8]; 12.1 µM (inactive) in [9]; 3.87 µM (inactive) in [10]; 14.2 µM (inactive) in assay [11]; 15.3 µM (inactive) in assay [12]. In addition, the GI50 is 16.2 µM (inactive) in assay [13]; 12.6 µM (inactive) in assay [14]; 13.8 µM (inactive) in assay [15]; 18.6 µM (inactive) in assay [16]; 12.1 µM (inactive) in assay [17]; 15.6 µM (inactive) in assay [18]. Moreover, the GI50 in [19] was 14.1 µM (inactive).

For `COc1ccc(CCN2CCc3c(C)c(C#N)c4nc5ccccc5n4c32)cc1OC`, the GI50 was 64.6 µM (inactive) in assay [2]; 54.6 µM (inactive) in assay [3]; > 100 µM (inactive) in assay [4]; 81.3 µM (inactive) in assay [5]; 34.2 µM (inactive) in assay [6]; 81.7 µM (inactive) in assay [20]. The GI50 was 19.6 µM (inactive) in [7]; 40.7 µM (inactive) in [8]; 26 µM (inactive) in [9]; 21.4 µM (inactive) in [10]; 35.1 µM (inactive) in assay [11]; 32.6 µM (inactive) in assay [12]. Besides, the GI50 is 37.7 µM (inactive) in [13]; 56.8 µM (inactive) in assay [14]; 30.8 µM (inactive) in [15]; 24.8 µM (inactive) in [16]; 35.3 µM (inactive) in [17]; 27.4 µM (inactive) in assay [18]. Moreover, the GI50 in [19] was 28.7 µM (inactive).

With `C=C1C2C[C@@H]3O[C@H]4C[C@H]5O[C@@]6(C[C@@H]7O[C@]8(C[C@H](C)[C@@H]9O[C@@H]%10CC(C=O)O[C@@H]%10C[C@@H]9O8)C[C@H](C)[C@@H]7O6)C[C@H]5O[C@H]4[C@H](C)[C@H]3OC(=O)C[C@H]3CC[C@@H]4OC5[C@H]6O[C@]7(CC[C@H]8CC(=C)[C@H](CC[C@@H](C[C@H]1C)O2)O8)CC6O[C@@H]5[C@@H](O7)[C@H]4O3` (some centres undefined), the GI50 in assay [2] is < 0.0001 µM (active); in assay [4], < 0.0001 µM (active); in [6], 0.000179 µM (active); in assay [20], < 0.0001 µM (active); in assay [7] it was < 0.0001 µM (active); in [8] it was < 0.0001 µM (active). In addition, the GI50 in assay [10], in assay [11], in assay [13], in [14], in assay [15] and in assay [16] was < 0.0001 µM (active) each time. In addition, the GI50 is < 0.0001 µM (active) in assay [17] and 0.000951 µM (active) in assay [18].
